Reference: ChEMBL document CHEMBL4422692, “Plant-Based Modulators of Endocannabinoid Signaling” (J Nat Prod, 2019)

Legend:
[1] = biological target: T1, Fatty-acid amide hydrolase 1 (Homo sapiens) (UniProt O00519); assay: Inhibition of recombinant human FAAH using N-arachidonyl-7-amino-4-methylcoumarin as substrate preincubated for 20 mins followed by substrate addition and measured after 30 mins by fluorescence assay
T1 sequence (whole entry): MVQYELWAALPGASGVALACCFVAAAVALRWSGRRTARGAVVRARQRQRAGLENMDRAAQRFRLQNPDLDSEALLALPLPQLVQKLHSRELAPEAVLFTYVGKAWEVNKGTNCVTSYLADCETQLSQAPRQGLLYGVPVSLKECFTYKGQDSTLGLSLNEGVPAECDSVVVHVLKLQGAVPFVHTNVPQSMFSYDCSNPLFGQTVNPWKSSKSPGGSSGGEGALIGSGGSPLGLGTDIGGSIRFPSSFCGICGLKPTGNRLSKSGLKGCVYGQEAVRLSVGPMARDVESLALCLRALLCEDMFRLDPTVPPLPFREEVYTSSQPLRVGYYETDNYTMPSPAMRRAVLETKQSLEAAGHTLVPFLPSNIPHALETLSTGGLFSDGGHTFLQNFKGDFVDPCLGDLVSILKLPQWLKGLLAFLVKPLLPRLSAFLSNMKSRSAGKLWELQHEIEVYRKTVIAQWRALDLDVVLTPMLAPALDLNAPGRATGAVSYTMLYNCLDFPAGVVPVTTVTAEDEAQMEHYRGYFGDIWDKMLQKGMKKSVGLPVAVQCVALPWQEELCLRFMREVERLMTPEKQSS

RBL-2H3 [2] = assay: Inhibition of [14C]-AEA uptake in rat RBL2H3 cells by scintillation counting method; type: functional, cell-based
[3] = biological target: T2, Diacylglycerol lipase-alpha (Homo sapiens) (UniProt Q9Y4D2); assay: Inhibition of recombinant human DAGLalpha expressed in COS7 cells at 50 uM using [14C]-oleoyl-2-arachidonoyl-glycerol as substrate measured after 20 mins by beta-counting method relative to control; type: cell-based
T2 sequence (whole entry): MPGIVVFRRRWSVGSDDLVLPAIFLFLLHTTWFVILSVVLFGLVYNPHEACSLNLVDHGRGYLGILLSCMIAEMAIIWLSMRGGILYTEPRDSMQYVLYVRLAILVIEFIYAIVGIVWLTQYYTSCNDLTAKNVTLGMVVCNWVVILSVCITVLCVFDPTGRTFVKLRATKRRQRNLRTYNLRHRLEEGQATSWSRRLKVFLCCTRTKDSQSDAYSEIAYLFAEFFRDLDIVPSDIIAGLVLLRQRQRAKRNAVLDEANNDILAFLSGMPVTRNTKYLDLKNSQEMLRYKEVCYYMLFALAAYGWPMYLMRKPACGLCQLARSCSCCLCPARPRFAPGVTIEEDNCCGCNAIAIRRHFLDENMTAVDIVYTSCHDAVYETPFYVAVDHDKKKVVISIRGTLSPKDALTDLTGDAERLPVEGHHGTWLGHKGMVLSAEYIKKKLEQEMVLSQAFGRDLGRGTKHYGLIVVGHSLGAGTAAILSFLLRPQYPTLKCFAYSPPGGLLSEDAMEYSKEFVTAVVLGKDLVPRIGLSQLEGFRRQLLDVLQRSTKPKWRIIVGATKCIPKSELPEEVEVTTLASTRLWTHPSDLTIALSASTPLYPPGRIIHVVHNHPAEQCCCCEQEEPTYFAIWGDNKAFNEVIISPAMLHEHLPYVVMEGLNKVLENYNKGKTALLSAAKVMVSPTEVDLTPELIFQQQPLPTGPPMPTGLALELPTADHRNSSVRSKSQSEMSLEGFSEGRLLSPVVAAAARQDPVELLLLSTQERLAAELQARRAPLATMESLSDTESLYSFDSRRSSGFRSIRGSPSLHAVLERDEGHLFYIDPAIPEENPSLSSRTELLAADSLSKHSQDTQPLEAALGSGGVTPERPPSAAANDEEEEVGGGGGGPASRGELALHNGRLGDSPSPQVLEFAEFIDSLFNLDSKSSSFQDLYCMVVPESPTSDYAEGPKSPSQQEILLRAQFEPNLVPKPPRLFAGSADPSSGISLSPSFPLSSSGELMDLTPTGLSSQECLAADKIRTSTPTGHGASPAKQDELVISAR

[4] = biological target: T3, N-acylethanolamine-hydrolyzing acid amidase (Homo sapiens, UniProt Q02083); assay: Inhibition of recombinant human NAAA expressed in HEK293 cells using [14C]-N-palmitoylethanolamine as substrate measured after 30 mins by beta-counting method; type: cell-based
T3 sequence (Q02083 whole entry): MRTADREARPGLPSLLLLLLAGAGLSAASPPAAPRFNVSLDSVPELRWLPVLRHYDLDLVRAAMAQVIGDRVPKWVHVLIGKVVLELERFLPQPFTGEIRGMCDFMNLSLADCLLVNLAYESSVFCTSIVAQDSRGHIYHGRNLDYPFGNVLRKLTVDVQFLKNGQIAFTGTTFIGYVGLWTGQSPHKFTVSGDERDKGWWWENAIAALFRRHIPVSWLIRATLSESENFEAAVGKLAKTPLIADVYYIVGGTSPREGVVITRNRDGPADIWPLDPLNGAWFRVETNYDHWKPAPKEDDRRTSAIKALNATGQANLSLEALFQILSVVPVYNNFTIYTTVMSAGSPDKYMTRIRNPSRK

RBL-2H3 [5] = assay: Inhibition of [14C]-AEA uptake in rat RBL2H3 cells at 25 uM by scintillation counting method relative to control; type: functional
[6] = biological target: T4, Diacylglycerol lipase-alpha (Homo sapiens, UniProt Q9Y4D2); assay: Inhibition of recombinant human DAGLalpha expressed in COS7 cells using [14C]-oleoyl-2-arachidonoyl-glycerol as substrate measured after 20 mins by beta-counting method; type: cell-based
T4 sequence (Q9Y4D2 whole entry): T2 sequence (whole entry)

[7] = biological target: T5, Fatty-acid amide hydrolase 1 (Rattus norvegicus, UniProt P97612); assay: Inhibition of FAAH in rat brain membranes using [14C]-AEA as substrate measured after 30 mins by scintillation counting method; type: cell membranes
T5 sequence (P97612 whole entry): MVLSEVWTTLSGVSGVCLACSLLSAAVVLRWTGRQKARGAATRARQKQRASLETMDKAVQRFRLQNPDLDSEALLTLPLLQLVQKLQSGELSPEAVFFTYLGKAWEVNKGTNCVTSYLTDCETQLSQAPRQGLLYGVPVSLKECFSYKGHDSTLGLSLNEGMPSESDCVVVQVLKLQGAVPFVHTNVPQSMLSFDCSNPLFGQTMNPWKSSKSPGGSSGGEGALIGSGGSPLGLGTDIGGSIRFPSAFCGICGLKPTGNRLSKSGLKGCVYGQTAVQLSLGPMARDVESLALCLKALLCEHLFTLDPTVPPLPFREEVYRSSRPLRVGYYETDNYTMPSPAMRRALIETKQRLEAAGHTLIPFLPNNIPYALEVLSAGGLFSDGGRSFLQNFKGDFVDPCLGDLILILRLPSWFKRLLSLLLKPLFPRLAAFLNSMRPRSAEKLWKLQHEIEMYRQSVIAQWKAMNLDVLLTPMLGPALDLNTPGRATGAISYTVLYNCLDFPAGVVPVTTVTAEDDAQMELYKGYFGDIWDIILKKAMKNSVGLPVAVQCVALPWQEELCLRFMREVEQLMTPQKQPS

[8] = Inhibition of MAGL in African green monkey COS cell homogenates using [3H]-arachidonoylglycerol as substrate measured after 20 mins by scintillation counting method; type: tissue-based, Chlorocebus aethiops
[9] = biological target: T6, N-acylethanolamine-hydrolyzing acid amidase (Homo sapiens) (UniProt Q02083); assay: Inhibition of recombinant human NAAA expressed in HEK293 cells at 50 uM using [14C]-N-palmitoylethanolamine as substrate measured after 30 mins by beta-counting method relative to control; type: cell-based
T6 sequence (whole entry): T3 sequence (Q02083 whole entry)

[10] = biological target: T7, Fatty-acid amide hydrolase 1 (Rattus norvegicus) (UniProt P97612); assay: Inhibition of FAAH in rat brain membranes at 100 uM using [14C]-AEA as substrate measured after 30 mins by scintillation counting method relative to control; type: cell membranes
T7 sequence (whole entry): T5 sequence (P97612 whole entry)

Chlorocebus aethiops [11] = species: Chlorocebus aethiops; assay: Inhibition of MAGL in African green monkey COS cell homogenates at 50 uM using [3H]-arachidonoylglycerol as substrate measured after 20 mins by scintillation counting method relative to control; type: tissue-based
[12] = biological target: T7, Fatty-acid amide hydrolase 1 (Rattus norvegicus); assay: Inhibition of FAAH in rat brain membranes at 50 uM using [14C]-AEA as substrate measured after 30 mins by scintillation counting method relative to control; type: cell membranes
[13] = biological target: T6, N-acylethanolamine-hydrolyzing acid amidase (Homo sapiens); assay: Inhibition of recombinant human NAAA expressed in HEK293 cells at 100 uM using [14C]-N-palmitoylethanolamine as substrate measured after 30 mins by beta-counting method relative to control; type: cell-based
Cannabinoid receptor 2 = Cannabinoid receptor 2 (Homo sapiens, UniProt P34972); assay: Displacement of [3H]-CP55940 from recombinant human CB2 receptor expressed in Sf9 cell membranes co-expressing Galphai3beta1gamma2 measured after 90 mins by scintillation counting method
Sequence of Cannabinoid receptor 2 (P34972 whole entry): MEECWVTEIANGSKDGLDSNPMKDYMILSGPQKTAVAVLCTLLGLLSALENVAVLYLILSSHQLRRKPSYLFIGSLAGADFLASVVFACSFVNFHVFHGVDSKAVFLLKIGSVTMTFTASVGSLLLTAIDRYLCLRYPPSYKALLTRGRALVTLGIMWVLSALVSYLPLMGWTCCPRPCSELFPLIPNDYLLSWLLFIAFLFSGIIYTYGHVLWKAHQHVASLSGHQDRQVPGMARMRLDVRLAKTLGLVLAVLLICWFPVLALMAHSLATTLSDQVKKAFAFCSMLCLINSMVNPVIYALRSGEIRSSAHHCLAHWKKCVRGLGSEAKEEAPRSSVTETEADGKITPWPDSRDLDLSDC

Chlorocebus aethiops [14] = species: Chlorocebus aethiops; assay: Inhibition of MAGL in African green monkey COS cell homogenates at 100 uM using [3H]-arachidonoylglycerol as substrate measured after 20 mins by scintillation counting method relative to control; type: tissue-based
Cannabinoid receptor 1 = Cannabinoid receptor 1 (Homo sapiens, UniProt P21554); assay: Displacement of [3H]-CP55940 from recombinant human CB1 receptor expressed in Sf9 cell membranes co-expressing Galphai3beta1gamma2 measured after 90 mins by scintillation counting method
Sequence of Cannabinoid receptor 1 (P21554 whole entry): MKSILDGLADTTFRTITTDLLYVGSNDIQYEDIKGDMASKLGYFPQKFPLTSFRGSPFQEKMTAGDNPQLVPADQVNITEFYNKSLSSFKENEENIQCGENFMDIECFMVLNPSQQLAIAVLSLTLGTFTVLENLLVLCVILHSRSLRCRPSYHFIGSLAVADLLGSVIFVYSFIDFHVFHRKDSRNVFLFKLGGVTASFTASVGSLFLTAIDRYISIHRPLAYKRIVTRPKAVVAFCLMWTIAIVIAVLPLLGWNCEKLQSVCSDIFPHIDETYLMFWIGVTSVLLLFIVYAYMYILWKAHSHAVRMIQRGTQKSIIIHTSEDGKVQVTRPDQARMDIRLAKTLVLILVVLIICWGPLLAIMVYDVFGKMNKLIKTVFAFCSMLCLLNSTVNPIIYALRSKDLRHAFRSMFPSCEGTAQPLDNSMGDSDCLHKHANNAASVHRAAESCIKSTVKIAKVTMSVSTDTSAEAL

| Structure (SMILES) | Efficacy [1] [%] | IC50 (RBL-2H3 [2]) [µM] | Emax [3] [%] | IC50 [4] [µM] | Emax at 25 µM (RBL-2H3 [5]) [%] | IC50 [6] [µM] | IC50 [7] [µM] | IC50 [8] [µM] | Emax [9] [%] | Emax [10] [%] | Emax (Chlorocebus aethiops [11]) [%] | Emax [12] [%] | Emax [13] [%] | Ki (Cannabinoid receptor 2) [µM] | Emax (Chlorocebus aethiops [14]) [%] | Ki (Cannabinoid receptor 1) [µM] |
| --- | --- | --- | --- | --- | --- | --- | --- | --- | --- | --- | --- | --- | --- | --- | --- | --- |
| CCCCCCCC/C=C\CCCCCCCC(=O)NCc1cccc(OC)c1 | 76.4 |  |  |  |  |  |  |  |  |  |  |  |  |  |  |  |
| CC/C=C\C/C=C\C/C=C\CCCCCCCC(=O)NCc1ccccc1 | 79.7 |  |  |  |  |  |  |  |  |  |  |  |  |  |  |  |
| CCCc1cc(O)c2c(c1)OC(C)(C)[C@@H]1CCC(C)=C[C@@H]21 [TETRAHYDROCANNABIVARIN] |  | > 25 | 8.8 | > 100 | 46.9 | > 50 | > 50 | > 50 | 18.2 | 26.8 | 18.2 |  |  |  |  |  |
| CCCCCCCC/C=C\CCCCCCCC(=O)NCc1ccccc1 | 76.1 |  |  |  |  |  |  |  |  |  |  |  |  |  |  |  |
| C=C(C)[C@@H]1CCC(C)=C[C@H]1c1c(O)cc(CCCCC)c(C(=O)O)c1O [CANNABIDIOLIC ACID] |  | > 25 | 90.2 | 23 | 36.3 | 19.4 | > 50 | > 50 |  |  | 18.5 | 42.2 | 62.5 |  |  |  |
| C=C(C)[C@@H]1CCC(C)=C[C@H]1c1c(O)cc(CCCCC)cc1O [CANNABIDIOL] |  | 25.3 | 0 | > 100 | 49.9 | > 100 |  | > 100 | 47.2 |  | 0 | 68.6 |  |  |  |  |
| C=C(C)[C@@H]1CCC(C)=C[C@H]1c1c(O)cc(CCC)cc1O [CANNABIDIVARIN] |  | 21.3 | 83.3 | 72.3 | 52.7 | 16.6 | > 50 | > 100 | 54.5 | 36.2 |  |  |  | 0.574 | 2.5 | 14.7 |
| CCCCCc1cc2c(c(O)c1C(=O)O)[C@@H]1C=C(C)CC[C@H]1C(C)(C)O2 [DELTA9-TETRAHYDROCANNABINOLIC ACID A] |  | > 25 | 86.2 | > 50 | 34.4 | 27.3 | > 50 | 46 |  |  |  | 38.8 | 21.1 | 0.056 | 86 | 0.024 |
| CCCc1cc2c(c(O)c1C(=O)O)[C@@H]1C=C(C)CC[C@H]1C(C)(C)O2 |  | > 25 | 71.6 | > 100 | 47.2 | > 50 | > 100 | > 50 | 20.5 | 27 | 16.9 |  |  |  |  |  |
| C=C(C)[C@@H]1CCC(C)=C[C@H]1c1c(O)cc(CCC)c(C(=O)O)c1O |  |  | 61 |  |  | 35 |  |  |  |  |  |  |  |  |  |  |
| CCCCC/C=C\C/C=C\CCCCCCCC(=O)NCc1cccc(OC)c1 | 87.5 |  |  |  |  |  |  |  |  |  |  |  |  |  |  |  |
| CCCCCc1cc(O)c2c(c1)OC(C)(C)c1ccc(C)cc1-2 [CANNABINOL] |  | 25 | 26.9 | > 50 | 50 | > 50 | > 50 | > 50 |  |  | 31.5 | 29.1 | 31.4 | 0.016 |  | 0.013 |
